Results from ChEMBL document CHEMBL5316293, “Novel Small-Molecule PD-L1 Inhibitor Induces PD-L1 Internalization and Optimizes the Immune Microenvironment” (J Med Chem, 2023).
Activity calls are given as the source filed them. The calls are words filed in the database; no cut-off is given here.

How the values were obtained:
A549 = assay: Cytotoxicity against human A549 cells assessed as reduction in tumor proliferation at 10 to 20 uM incubated for 48 hrs by xCELLigence RTCA system analysis; type: functional, cell-based; settings: dose 10-20 µM
LLC-hPD-L1 [1] = assay: Antitumor activity against humanized mouse LLC-hPD-L1 cells implanted in hPD-1 knockin C57BL/6 mouse assessed as increase in GzmB level at 10 to 25 mg/kg, ip administered for 12 days starting from day 7 post tumor implantation by flow cytometry analysis; type: functional, organism-based; settings: dose 10-25 mg/kg, time 12.0 day
LLC-hPD-L1 [2] = assay: Antitumor activity against humanized mouse LLC-hPD-L1 cells implanted in hPD-1 knockin C57BL/6 mouse assessed as macrophage polarization into M1 phenotype at 25 mg/kg, ip administered for 12 days starting from day 7 post tumor implantation by flow cytometry analysis; type: functional, organism-based; settings: time 12.0 day
[3] = molecular target: T1, Programmed cell death protein 1/Programmed cell death 1 ligand 1 (Homo sapiens) (UniProt Q15116+Q9NZQ7); assay: (§1) Inhibition of PD-1/PD-L1 interaction in human A549 cells harboring low level PD-L1 expression assessed as increase in transcriptional-mediated bioluminescent signal preincubated with compound followed by washout and further cultured with Jurkat cells transfected with NFAT luciferase by bio-glo reagent based assay; type: cell-based; settings: dose 50-200 nM
Homo sapiens = species on record: Homo sapiens; assay: Internalization of PD-L1 in cytoplasm of human RKO cells assessed as increase in PD-L1 concentration in cytoplasm at 1 micromol/L incubated for 6 hrs by fluorescence microscopy; type: functional, cell-based; settings: dose 1.0 µmol/L
[4] = Toxicity in ICR mouse assessed as reduction in spleen weight at 500 to 5000 mg/kg, po administered via gavage for 2 weeks; type: organism-based; settings: in vivo, 336 h, dose 500-5000 mg/kg
[5] = molecular target: T2, Programmed cell death 1 ligand 1 (Homo sapiens, UniProt Q9NZQ7); assay: Inhibition of PD-1 Fc IgG fusion protein binding to PD-L1 in human NCI-H460 cells incubated for 6 hrs by DAPI/PD-1 anti-human IgG DyLight 488 staining based fluorescence microscopy; type: cell-based
MC38-hPD-L1 [6] = assay: Antitumor activity against humanized mouse MC38-hPD-L1 cells implanted in hPD-1 knockin C57BL/6 mouse assessed as increase in CD8-positive T cells at 10 to 25 mg/kg, ip administered for 12 days starting from day 7 post tumor implantation by flow cytometry analysis; type: functional, organism-based; settings: dose 10-25 mg/kg, time 12.0 day
[7] = Toxicity in ICR mouse assessed as reduction in lungs weight at 500 to 5000 mg/kg, po administered via gavage for 2 weeks; type: organism-based; settings: in vivo, 336 h, dose 500-5000 mg/kg
MC38-hPD-L1 [8] = assay: Antitumor activity against humanized mouse MC38-hPD-L1 cells implanted in hPD-1 knockin C57BL/6 mouse assessed as reduction in Treg cells at 10 to 25 mg/kg, ip administered for 12 days starting from day 7 post tumor implantation by flow cytometry analysis; type: functional, organism-based; settings: dose 10-25 mg/kg, time 12.0 day
[9] = Toxicity in hPD-1 knockin C57BL/6 mouse implanted with humanized mouse LLC-hPD-L1 cells assessed as reduction in body weight at 10 to 25 mg/kg, ip administered for 12 days starting from day 7 post tumor implantation and measured every 3 to 4 days; type: organism-based; settings: in vivo, 288 h, dose 10-25 mg/kg, time 12 day
[10] = Toxicity in hPD-1 knockin C57BL/6 mouse implanted with humanized mouse MC38-hPD-L1 cells assessed as reduction in body weight at 10 to 25 mg/kg, ip administered for 12 days starting from day 7 post tumor implantation and measured every 3 to 4 days; type: organism-based; settings: in vivo, 288 h, dose 10-25 mg/kg, time 12 day
MC38-hPD-L1 [11] = assay: Antitumor activity against humanized mouse MC38-hPD-L1 cells implanted in hPD-1 knockin C57BL/6 mouse assessed as reduction in MDSC cells at 10 to 25 mg/kg, ip administered for 12 days starting from day 7 post tumor implantation by flow cytometry analysis; type: functional, organism-based; settings: dose 10-25 mg/kg, time 12.0 day
[12] = Antitumor activity against humanized mouse LLC-hPD-L1 cells implanted in hPD-1 knockin C57BL/6 mouse assessed as tumor growth inhibition at 25 mg/kg, ip administered for 12 days starting from day 7 post tumor implantation and measured every 2 days relative to control; type: functional; settings: LLC-hPD-L1, 288 h, time 12 day, read-out: TGI
MC38-hPD-L1 [13] = assay: Antitumor activity against humanized mouse MC38-hPD-L1 cells implanted in hPD-1 knockin C57BL/6 mouse assessed as increase in GzmB level at 10 to 25 mg/kg, ip administered for 12 days starting from day 7 post tumor implantation by flow cytometry analysis; type: functional, organism-based; settings: dose 10-25 mg/kg, time 12.0 day
[14] = Toxicity in ICR mouse assessed as reduction in heart weight at 500 to 5000 mg/kg, po administered via gavage for 2 weeks; type: organism-based; settings: in vivo, 336 h, dose 500-5000 mg/kg
[15] = Toxicity in ICR mouse assessed as body weight loss at 500 to 5000 mg/kg, po administered via gavage for 2 weeks; type: organism-based; settings: in vivo, 336 h, dose 500-5000 mg/kg
MC38-hPD-L1 [16] = assay: Antitumor activity against humanized mouse MC38-hPD-L1 cells implanted in hPD-1 knockin C57BL/6 mouse assessed as increase in CD69-positive CD137-positive T cells at 10 to 25 mg/kg, ip administered for 12 days starting from day 7 post tumor implantation by flow cytometry analysis; type: functional, organism-based; settings: dose 10-25 mg/kg, time 12.0 day
LLC-hPD-L1 [17] = assay: Antitumor activity against humanized mouse LLC-hPD-L1 cells implanted in hPD-1 knockin C57BL/6 mouse assessed as increase in tumor cell apoptosis by measuring increase in cleaved caspase-3 level administered intraperitoneally for 12 days starting from day 7 post tumor implantation by immunohistochemistry analysis; type: functional, cell-based; settings: dose 10-25 mg/kg, route ip, time 12.0 day
[18] = Half life in ICR mouse at 5 mg/kg, iv; type: ADME, organism-based; settings: in vivo
MC38-hPD-L1 [19] = assay: Antitumor activity against humanized mouse MC38-hPD-L1 cells implanted in hPD-1 knockin C57BL/6 mouse assessed as reduction in M2 macrophages at 10 to 25 mg/kg, ip administered for 12 days starting from day 7 post tumor implantation by flow cytometry analysis; type: functional, organism-based; settings: dose 10-25 mg/kg, time 12.0 day
LLC-hPD-L1 [20] = assay: Antitumor activity against humanized mouse LLC-hPD-L1 cells implanted in hPD-1 knockin C57BL/6 mouse assessed as reduction in MDSC cells at 10 to 25 mg/kg, ip administered for 12 days starting from day 7 post tumor implantation by flow cytometry analysis; type: functional, organism-based; settings: dose 10-25 mg/kg, time 12.0 day
[21] = molecular target: T1, Programmed cell death protein 1/Programmed cell death 1 ligand 1 (Homo sapiens); assay: as §1, with “human NCI-H358” for “human A549”, “harboring high” for “harboring low”; type: cell-based; settings: dose 50-200 nM
LLC-hPD-L1 [22] = assay: Antitumor activity against humanized mouse LLC-hPD-L1 cells implanted in hPD-1 knockin C57BL/6 mouse assessed as reduction in Treg cells at 10 to 25 mg/kg, ip administered for 12 days starting from day 7 post tumor implantation by flow cytometry analysis; type: functional, organism-based; settings: dose 10-25 mg/kg, time 12.0 day
[23] = molecular target: T2, Programmed cell death 1 ligand 1; assay: Binding affinity to human PD-L1 assessed as dissociation constant by MST analysis
NCI-H460 = assay: Cytotoxicity against human NCI-H460 cells cocultured with human PBMC cells assessed as increase in clearance of tumor cells at 100 to 200 nM preincubated for 30 mins followed by NCI-H460 cells addition and further coincubated for 24 hrs with human PBMC cells by cell impedence assay; type: functional, cell-based; settings: dose 100-200 nM, time 24.5 hrs
LLC-hPD-L1 [24] = assay: Antitumor activity against humanized mouse LLC-hPD-L1 cells implanted in hPD-1 knockin C57BL/6 mouse assessed as increase in IFN-gamma level at 10 to 25 mg/kg, ip administered for 12 days starting from day 7 post tumor implantation by flow cytometry analysis; type: functional, organism-based; settings: dose 10-25 mg/kg, time 12.0 day
[25] = Cmax in ICR mouse at 5 mg/kg, iv; type: ADME, organism-based; parameters: dose 5 mg/kg, route iv; settings: in vivo

T2 sequence (Q9NZQ7 whole entry, the tested form may be a part): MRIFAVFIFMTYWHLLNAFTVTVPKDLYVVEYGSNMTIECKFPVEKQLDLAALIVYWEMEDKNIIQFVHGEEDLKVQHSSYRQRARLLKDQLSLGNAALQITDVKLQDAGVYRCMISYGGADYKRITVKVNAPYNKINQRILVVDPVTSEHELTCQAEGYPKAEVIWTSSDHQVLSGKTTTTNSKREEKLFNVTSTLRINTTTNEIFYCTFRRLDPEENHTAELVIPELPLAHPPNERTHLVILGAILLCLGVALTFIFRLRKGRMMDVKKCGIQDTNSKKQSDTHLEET

**Q.** With `COc1cc2c(cc1CN[C@@H](CO)C(=O)O)C(=O)N(c1cccc(-c3ccccc3)c1C)C2=O` as the compound, how does the Activity (A549) read?
**A.** inactive

**Q.** And the Activity (LLC-hPD-L1 [1])?
**A.** Active

**Q.** And the Activity (LLC-hPD-L1 [2])?
**A.** Active

**Q.** And the inhibition [3]?
**A.** Dose-Dependent Effect

**Q.** And the Activity (Homo sapiens)?
**A.** Active

**Q.** And the Activity [4]?
**A.** Non-Toxic

**Q.** What about the EC50 [5] of the same compound?
**A.** 121 nM

**Q.** What about the Activity (MC38-hPD-L1 [6]) of the same compound?
**A.** Active

**Q.** What about the Activity [7] of the same compound?
**A.** Non-Toxic

**Q.** And the Activity (MC38-hPD-L1 [8])?
**A.** Active

**Q.** And the Activity [9]?
**A.** Non-Toxic

**Q.** What about the Activity [10] of the same compound?
**A.** Non-Toxic

**Q.** And the Activity (MC38-hPD-L1 [11])?
**A.** Active

**Q.** And the inhibition in vivo at 25 mg/kg [12]?
**A.** 81.4%

**Q.** And the Activity (MC38-hPD-L1 [13])?
**A.** Active

**Q.** And the Activity [14]?
**A.** Non-Toxic

**Q.** What about the Activity [15] of the same compound?
**A.** Non-Toxic

**Q.** And the Activity (MC38-hPD-L1 [16])?
**A.** Active

**Q.** What about the Activity (LLC-hPD-L1 [17]) of the same compound?
**A.** Dose-Dependent Effect

**Q.** What about the half-life [18] of the same compound?
**A.** 9.78 h

**Q.** And the Activity (MC38-hPD-L1 [19])?
**A.** Active

**Q.** And the Activity (LLC-hPD-L1 [20])?
**A.** Active

**Q.** What about the inhibition [21] of the same compound?
**A.** Dose-Dependent Effect

**Q.** What about the Activity (LLC-hPD-L1 [22]) of the same compound?
**A.** Active

**Q.** And the Kd [23]?
**A.** 71.4 nM

**Q.** And the Activity (NCI-H460)?
**A.** Active

**Q.** And the Activity (LLC-hPD-L1 [24])?
**A.** Active

**Q.** And the Cmax [25]?
**A.** 6290 ng/mL
